According to patent US12331042B2, “Compounds suitable for the treatment and prophylaxis of muscle wasting and other conditions” (priority 2019, dated 2025):
Entries after “also recorded” stand apart in the source; their conditions may differ.

Assays:
Murine C2C12 myoblasts = test: Cytotoxicity, LDH release in cultured myoblasts; format: cell-based; settings: increasing concentrations, 24 h
Method: Murine C2C12 myoblasts (CRL-1772, ATCC) were cultured in DMEM (Lonza; Basel, Switzerland) supplemented with 10% fetal calf serum (FCS; Gibco®Invitrogen, Carlsbad, CA). For induction of differentiation into myotubes, subconfluent cultures were switched to DMEM containing 2% horse serum (Sigma-Aldrich; Seelze, Germany). Myotubes were subsequently pre-treated for 2 h with increasing compound concentrations (0.1 to 10 μmol/L, dissolved in DMSO) or with an equal volume of DMSO before treatment for 24 h with 10 μmol/L dexamethasone (DEX; Sigma-Aldrich; Seelze, Germany). Myotube diameter was then evaluated by image analysis software (Analysis 3.0, Olympus Soft Imaging Solutions GmbH, Munster, Germany). To determine cytotoxicity of selected compounds, myoblasts or myotubes were incubated with increasing concentrations for 24 h. Subsequently, the concentration of lactate dehydrogenase (LDH) activity was quantified in the cell culture supernatant as a measure for cell destruction as described in Bellocci et al., Anal Biochem, 2008, 374, 48-55.

[1] = system: monocrotaline (MCT)-treated C57BL/6 mice; test: Pulmonary hypertension mouse model, test series 2; format: in vivo; settings: MCT+compound (0.1 weight-% in chow) vs MCT, 8 weeks
Method: The test series 2 were performed analogous to test series 1. Briefly, Three groups of mice were included in this study: 1) saline-treated mice (sham; n=10); 2) monocrotaline (MCT)-treated mice fed with normal chow (MCT; n=10); and 3) MCT-treated mice fed with MuRF1 inhibitor chow (MCT+compound; n=10 for each compound). 8 weeks old C57BL/6 mice were subcutaneously injected weekly with either MCT (600 mg/kg) or a matched volume of saline for 8 weeks. The MCT+compound group started receiving the inhibitor chow 1 week prior to the MCT injections, whereas the sham and MCT groups were fed an identical chow but without the addition of the selected compound. The compound concentration in the chow was 0.1 weight-%, resulting in a daily compound intake per mouse of about 3 mg. Body weight was recorded every week for each mouse. Mice were sacrificed after 8 weeks treatment. At sacrifice, examination and tissue analysis were performed as described in test series 1.

[2] = system: C57/BL6 mice with LAD ligation (CHF); test: Myocardial infarction LAD mouse model (CHF, HFrEF); format: in vivo; settings: 0.1% compound in chow
Method: A myocardial infarction mouse model suffering from a heart failure with reduced ejection fraction (HFrEF) was generated by ligating the left anterior […] coronary artery (LAD) as described below to induce an acute myocardial infarction (MI) followed by the development of a chronic (systolic) heart failure (CHF).
A small animal surgery was carried out on C57/BL6 mice at 12 weeks of age in the Leipzig Heart Center following established and well known procedures in the field (see for example Bowen et al., J Appl Physiol, 2015, 118, 11-19; Mangner et al., J Cachexia Sarcopenia Muscle, 2015, 6, 381-390). Briefly, mice from the LAD group were anesthetized by i.p. injection of MMF; Medetomidin (0.5 mg/kg body weight), Midazolam (5.0 mg/kg body weight), Fentanyl (0.05 mg/kg body weight). Unconscious mice were fixed on an operation table. Ventral parts of the thorax were shaved, washed and sterilized. Unconscious mice were then intubated and ventilated with normal room air, using an animal respirator (TSE GmbH, Siemensstr. 21, 61352 Bad Homburg; product: http://tinateb.com/wp-content/uploads/2016/06/TSE_Respirator-Compact_20080724_HR.pdf). For LAD operation, the thorax was opened about 1 cm above the Processus xiphoideus and about 1 cm left parasternally by dissecting the skin here. The below located M. pectoralis was moved to the sides without further injury to access the thorax wall. The intercostal muscles between two ribs were moved to the side without breaking the ribs. The thereby created intrathoracic access was widened by a surgical spreader inserted above the pericardium. The pericardium was opened surgically stump by using two anatomical forceps. The thymus, if present in the surgical field, was pushed to the side with a surgical swab to gain access to the aortic root. The heart was carefully moved out of the pericardium using a hook, and the left atrium was put to the side with a surgical swab. The LAD was then ligated with a 5.0 Prolene suture (Ethicon, see http://www.ethicon.com/healthcare-professionals/products/wound-closure/non-absorbable-sutures/prolene-polypropylene). The ligation was made close to the aortic root, and the suture was tightened until paleness of the coronary artery anterior wall was noted. After ligation, the thorax wall and then the skin were closed by a single button seam using a 4.0 Prolene suture (company: Ethicon).
As a control, sham operations were performed. For the sham control group, the procedure followed was exactly the same as described above, except that the 5.0 prolene suture was only loosely out around the LAD without tightening.
The operation is ended by extubation, and antagonizing the anesthesia by i.p. injection of Atipamezol (2.5 mg/kg body weight) and Flumazenil (0.5 mg/kg body weight). Mice were put onto a warming mate until waking up, and then were transferred back to animal cages. The time for the whole procedure above by expert staff was around 30 min.
One week after LAD ligation, echocardiography was performed in M-mode to confirm MI, i.e. the left ventricular end-diastolic (LVEDD) and systolic (LVESD) diameters were assessed to allow calculation of left ventricular (LV) fractional shortening (LVFS=[LVEDD_LVESDLVEDD]×100). Only mice with a large infarct (left ventricular ejection fraction (LVEF)<20%) were subsequently randomized into two groups, i.e. one group receiving normal chow (CHF, n=11) and a second group receiving chow supplemented with compound (0.1% of compound MyoMed-946, CHF+MyoMed-946, n=12). Sham operated animals received only normal chow (n=15). Nine weeks later, echocardiography was performed again.
The animals were sacrificed to collect tissues, in particular diaphragm tissue, for functional and molecular characterization. All experiments and procedures were approved by the local Animal Research Council, University of Leipzig, and the Landesbehörde Sachsen (TVV 36/15).

[3] = system: citrate synthase and mitochondrial complex I; test: Enzyme activity measurements in muscle tissue, B16F10 mice; format: in vivo; settings: tumor+compound vs tumor
Method: The enzyme activities of citrate synthase and mitochondrial complex I in muscle tissue of B16F10 inoculated mice were determined as described above for the […] mice.

[4] = after 10 weeks of intervention, n = 12
[5] = after 10 weeks, echocardiography

For `Cc1cc(=O)oc2cc(OCc3ccc(C(=O)OCC(=O)NC(=O)NCc4ccco4)cc3)ccc12` [MyoMed-946, [2-(2-furylmethylcarbamoylamino)-2-oxo-ethyl] 4-[(4-methyl-2-oxo-chromen-7-yl)oxymethyl]benzoate], the “toxicity (LDH release)” value (Murine C2C12 myoblasts) was “low toxicity”, the right ventricle hypertrophy [1] was “attenuated; also recorded: attenuate the development of right ventricle hypertrophy” and the LV infarct size ([2]; after 10 weeks of intervention, histology) was 27.1 ± 2.9%. For the same compound, the Heart-to-body weight [2, 4] was 7.52 ± 0.57 mg/g, the “Lung weight (wet/dry)” value [2, 4] was 4.47 ± 0.10 and the LVEDD [2, 5] was 5.9 ± 0.2 mm. The LVEF [2, 5] was 21.1 ± 2.5 %, the LVESD [2, 5] was 5.3 ± 0.2 mm and the LVFS [2, 5] was 9.9 ± 1.2 %. The “citrate synthase enzyme activity” value [3] was “attenuated; also recorded: partially or complete restores”.
